Data: PMC4741274 (Neurochemical research, 2015)
Values joined by “and” are separate entries in the source; they are usually repeats but may differ in a detail not shown here. Identical values can stand only once. “Also recorded” adds a separate entry of the source. Like-named read-outs stand apart in the source and are kept apart here.

Legend:
α4β2 nAChR [1] = target: T1, α4β2 nAChR (Rattus norvegicus, UniProt P09483+P12390); assay type: binding; details: for Ki: read-out: Ki α4β2, vs 500pM [3H]EB, HEK cells, Mean ± SEM of three
α2β2 nAChR = α2β2 nAChR (Rattus norvegicus, UniProt P12389+P12390); experiment: Competition binding vs 500 pM [3H]EB, stably transfected HEK cells
α7 nAChR [2] = target: T2, α7 nAChR (Rattus norvegicus, UniProt Q05941); experiment: as above
α3β2 nAChR = α3β2 nAChR (Rattus norvegicus, UniProt P04757+P12390); experiment: as above
[3] = tested on: IMR-32 cells (ganglionic-like α3β4 nAChRs); details: 86Rb+ efflux, ref [22]; cited from earlier work
α4β4 nAChR = α4β4 nAChR (Rattus norvegicus, UniProt P09483+P12392); experiment: Competition binding vs 500 pM [3H]EB, stably transfected HEK cells
[4] = tested on: Human α4β2 nAChRs expressed in K177 cells; details: 86Rb+ efflux, ref [22]; cited from earlier work
α3β4 nAChR [5] = target: T3, α3β4 nAChR (Rattus norvegicus, UniProt P04757+P12392); experiment: Competition binding vs 500 pM [3H]EB, stably transfected HEK cells; details: for Selectivity ratio α3β4/α7: ratio of Ki in stably transfected cells
α2β4 nAChR [6] = target: T4, α2β4 nAChR (Rattus norvegicus, UniProt P12389+P12392); experiment: as above
[7] = target: α4β2* nAChRs from rat forebrain tissue (FB) (Rattus norvegicus, UniProt P09483+P12390); experiment: biochemical; assay type: binding
[8] = tested on: α4β2* nAChRs from rat forebrain tissue (FB); experiment: biochemical; assay type: binding; details: Ki α3β4 transfected cells vs rat forebrain (FB) α4β2
rat α3β4 nAChRs = rat α3β4 nAChRs (Rattus norvegicus, UniProt P04757+P12392); experiment: cell-based; assay type: cell-based; details: for Agonist activity (in words): α3β4 nAChRs, 86Rb+ efflux
[9] = tested on: α4β2* nAChRs from rat forebrain tissue (FB); details: cited from earlier work
α7 nAChR [10] = target: T2, α7 nAChR; details: read-out: Ki α7; added for comparison; ref [24]; cited from earlier work
α2β4 nAChR [11] = target: T4, α2β4 nAChR; details: read-out: Ki α2β4; added for comparison; ref [24]; cited from earlier work
α4β2 nAChR [12] = target: T1, α4β2 nAChR; details: added only for comparison; ref [24]; cited from earlier work
α3β4 nAChR [13] = target: T3, α3β4 nAChR; details: cited from earlier work
nAChRs = nAChRs (Rattus norvegicus, UniProt P09483+P12390); assay type: binding; details: read-out: Ki AVG
[14] = ratio of Ki in stably transfected cells
[15] = read-out: Ki α2β2, vs 500pM [3H]EB, HEK cells, Mean ± SEM of three
[16] = read-out: Ki α7, vs 500pM [3H]EB, HEK cells, Mean ± SEM of three
[17] = read-out: Ki α3β2, vs 500pM [3H]EB, HEK cells, Mean ± SEM of three
[18] = read-out: Ki α4β4, vs 500pM [3H]EB, HEK cells, Mean ± SEM of three
[19] = read-out: Ki α3β4, vs 500pM [3H]EB, HEK cells, Mean ± SEM of three
[20] = read-out: Ki α2β4, vs 500pM [3H]EB, HEK cells, Mean ± SEM of three

Compound	Selectivity ratio α3β4/α4β2 (α4β2 nAChR [1]; [14])	Agonist/antagonist function (in words) [3]	Agonist/antagonist function (in words) [4]	EC50 [4]	Selectivity ratio α3β4/α7 (α3β4 nAChR [5])	Selectivity ratio α3β4/α4β2*FB [8]	EC50 (rat α3β4 nAChRs)	Agonist activity (in words) (rat α3β4 nAChRs)	Ki (α4β2 nAChR [1])	Ki (α2β2 nAChR; [15])	Ki (α7 nAChR [2]; [16])	Ki (nAChRs)	Ki (α3β2 nAChR; [17])	Ki (α4β4 nAChR; [18])	Ki (α3β4 nAChR [5]; [19])	Ki (α2β4 nAChR [6]; [20])	other results
CN1CCC[C@H]1COc1cccnc1 [A-84543, 3-(1-methyl-2(S)-pyrrolidinylmethoxy)pyridine, reference compound]	1,357	full agonists	full agonists	750 nM	5.58	351.9	160000 ± 40000 nM	partial agonist with low potency									Selectivity ratio α7/α4β2 (α4β2 nAChR [1]; [14]): 242; Ki (α2β2 nAChR): 2 ± 0.3 nM; Ki (α7 nAChR [2]): 340 ± 50 nM; Ki (α3β2 nAChR): 12 ± 1 nM; Ki (α4β4 nAChR): 150 ± 10 nM; Ki (α3β4 nAChR [5]): 1900 nM; Ki (α2β4 nAChR [6]): 370 ± 40 nM; Ki [7]: 5.4 ± 0.6 nM; Emax (rat α3β4 nAChRs; HEK293, read-out: Relative Emax): 37.5 ± 6%
c1cncc(OC[C@@H]2CCN2)c1 [A-85380, 3-(2(S)-azetidinylmethoxy) pyridine]																	Selectivity ratio α3β4/α4β2*FB [9]: 312; Ki (α7 nAChR [10]): 420 ± 50 nM; Ki (α2β4 nAChR [11]): 18 ± 4 nM; Selectivity ratio α3β4/α4β2 (α4β2 nAChR [12]): 557.14; Selectivity ratio α7/α4β2 (α4β2 nAChR [12]): 3,000; Selectivity ratio α3β4/α7 (α3β4 nAChR [13]): 0.18
c1cncc(OC[C@@H]2CCCN2)c1 [H-11MNH]	538.5	full agonists	full agonists	4000 nM	3.23	295.8	24000 ± 1000 nM	full agonist with high potency; also recorded: full agonist with high efficacy	0.39 ± 0.05 nM	0.35 ± 0.09 nM	65 ± 5 nM	0.46 nM	1.3 ± 0.3 nM	31 ± 6 nM	210 ± 40 nM	76 ± 12 nM	Selectivity ratio α3β4/α4β2*FB ([8]; listed as H-11NMH): ~ 300; Relative Emax (rat α3β4 nAChRs): 83.33% and 83.3 ± 3%
c1ccc(OCC2CCCN2)nc1 (centres unmarked) [H-11ONH]									> 10000 nM	> 10000 nM	> 10000 nM	21800 nM	> 10000 nM	> 10000 nM	> 10000 nM	> 10000 nM	
CN1CCCC1COc1ccccn1 (centres unmarked) [H-11ONM]									> 10000 nM	> 10000 nM	> 10000 nM	60300 nM	> 10000 nM	> 10000 nM	> 10000 nM	> 10000 nM	
c1cc(OC[C@@H]2CCCN2)ccn1 [H-11PNH]									> 10000 nM	> 10000 nM	> 10000 nM	59200 nM	> 10000 nM	> 10000 nM	> 10000 nM	> 10000 nM	
